According to patent US12325710B2, “Substituted 1,2,3,4,5,6-hexahydroazepino[4,5-b]indoles for treating brain disorders” (priority 2019, dated 2025):
“Also recorded” adds a separate entry of the source.

Assays:
5HT2A sensor = 5HT2A sensor assay (sLight1.3s HEK293T cells), agonist and antagonist mode; assay type: cell-based; details: for activation of 5HT2A sensor, agonist mode / competition with 5HT binding at 5HT2A sensor, antagonist mode: 10 μM of compound; for activation of 5HT2A sensor, agonist mode: FIG. 16; for competition with 5HT binding at 5HT2A sensor, antagonist mode: FIG. 18; for activation of 5HT2A sensor, agonist mode, dose response: FIG. 15
Method: 5HT2A Sensor Assays. HEK293T (ATCC) 5HT2A sensor stable line (sLight1.3s) was generated via lentiviral transduction of HIV-EF1α-sLight1.3 and propagated from a single colony. Lentivirus was produced using 2nd generation lentiviral plasmids pHIV-EF1α-sLight1.3, pHCMV-G, and pCMV-deltaR8.2.
For the screening of the 41 compounds, sLight1.3s cells were plated in 96-well plates at a density of 40000 24-hours prior to imaging. On the day of imaging, compounds solubilized in DMSO were diluted from the 100 mM stock solution to working concentrations of 1 mM, 100 μM and 1 μM with a DMSO concentration of 1%. Immediately prior to imaging, cells growing in DMEM (Gibco) were washed 2× with HBSS (Gibco) and in agonist mode 180 μL of HBSS or in antagonist mode 160 μL of HBSS was added to each well after the final wash. For agonist mode, images were taken before and after the addition of the 20 μL compound working solution into the wells containing 180 μL HBSS. This produced final compound concentrations of 100 μM, 10 μM and 100 nM with a DMSO concentration of 0.1%. For antagonist mode, images were taken before and after addition of 20 μL of 900 nM 5-HT and again after 20 μL of the compound working solutions to produce final concentrations of 100 nM for 5HT and 100 μM, 10 μM and 100 nM for the compounds with a DMSO concentration of 0.1%. Each compound was tested in triplicates (3 wells) for each concentration (100 μM, 10 μM and 100 nM). Additionally, within each plate, 100 nM 5HT and 0.1% DMSO controls were also imaged.
For each well, the cellular membrane where the 5HT2A sensor is targeted was autofocused using the adaptive focus controls and 5 images from different regions within the well were taken with each image processed from a 2×2 binning.
For data processing, the membranes from each image was segmented and analyzed using a custom algorithm written in MATLAB producing a single raw fluorescence intensity value. For each well the 5 raw fluorescence intensity values generated from the 5 images were averaged and the change in fluorescence intensity (dFF) was calculated as: dFF=(Fsat−Fapo)/Fapo
For both agonist and antagonist modes, the fluorescence intensity values before compound addition in HBSS only were used as the Fapo values while the fluorescence intensity values after compound addition were used as the Fsat values.
For agonist mode, data are as percent activation relative to 5HT, where 0 is the average of the DMSO wells and 100 is the average of the 100 μM 5HT wells.

5-HT2B receptors = 5-HT2B receptors (Homo sapiens, UniProt P41595); test: 5-HT2B Gq-mediated calcium flux functional assay; assay type: cell-based
Method: Serotonin and Opioid Receptor Functional Assays. Functional assay screens at 5-HT and opioid receptors were performed in parallel using the same compound dilutions and 384-well format high-throughput assay platforms. Assays assessed activity at all human isoforms of the receptors, except where noted for the mouse 5-HT2A receptor. Receptor constructs in pcDNA vectors were generated from the Presto-Tango GPCR library with minor modifications. All compounds were serially diluted in drug buffer (HBSS, 20 mM HEPES, pH 7.4 supplemented with 0.1% bovine serum albumin and 0.01% ascorbic acid) and dispensed into 384-well assay plates using a FLIPR^TETRA (Molecular Devices). Every plate included a positive control such as 5-HT (for all 5-HT receptors), DADLE (DOR), salvinorin A (KOR), and DAMGO (MOR). For measurements of 5-HT2A, 5-HT2B, and 5-HT2C Gq-mediated calcium flux function, HEK Flp-In 293 T-Rex stable cell lines (Invitrogen) were loaded with Fluo-4 dye for one hour, stimulated with compounds and read for baseline (0-10 seconds) and peak fold-over-basal fluorescence (5 minutes) at 25° C. on the FLIPR^TETRA. For measurement of 5-HT6 and 5-HT7a functional assays, Gs-mediated cAMP accumulation was detected using the split-luciferase GloSensor assay in HEKT cells measuring luminescence on a Microbeta Trilux (Perkin Elmer) with a 15 min drug incubation at 25° C. For 5-HT1A, 5-HT1B, 5-HT1F, MOR, KOR, and DOR functional assays, Gi/o-mediated cAMP inhibition was measured using the split-luciferase GloSensor assay in HEKT cells, conducted similarly as above, but in combination with either 0.3 μM isoproterenol (5-HT1A, 5-HT1B, 5-HT1F) or 1 μM forskolin (MOR, KOR, and DOR) to stimulate endogenous cAMP accumulation. For measurement of 5-HT1D, 5-HT1E, 5-HT4, and 5-HT5A functional assays, β-arrestin2 recruitment was measured by the Tango assay utilizing HTLA cells expressing TEV fused-β-arrestin2, as described previously with minor modifications. […]

C57BL/6J mice = test: Head-twitch response (HTR) assay; details: intraperitoneal; fumarate salts; 5-MeO-DMT 10 mg/kg as positive control
[1] = system: rat embryonic cortical neurons; test: Dendritogenesis (Sholl analysis) in cultured cortical neurons; assay type: cell-based; details: 1 h treatment followed by 71 h growth; compared to vehicle (VEH)
Method: Embryonic rat cortical neurons were treated for a short period of time (1 h) followed by a suitable growth period (71 h) to measure the psychoplastogenic effects of the compounds described herein. […] Therefore, the effects of ibogalogs 8-17 on dendritic growth was assessed.
Dendritogenesis Experiments. For the dendritogenesis experiments conducted using cultured cortical neurons, timed pregnant Sprague Dawley rats were obtained from Charles River Laboratories (Wilmington, MA). Full culturing, staining, and analysis details were performed as previously described. (Dunlap, L. et al., 2019)

[2] = system: mouse primary sensory cortex; test: In vivo spine dynamics, transcranial 2-photon imaging; details: 24 h after i.p. dose; TBG 50 mg/kg, DOI 10 mg/kg
Method: In Vivo Spine Dynamics. Male and female Thy1-GFP-M line mice (n=5 per condition) were purchased from The Jackson Laboratory (JAX #007788) and maintained in UCSC animal facilities according to an IACUC approved protocol. In vivo transcranial two-photon imaging and data analysis were performed as previously described. Briefly, mice were anesthetized with an intraperitoneal (i.p.) injection of a mixture of ketamine (87 mg/kg) and xylazine (8.7 mg/kg). A small region of the exposed skull was manually thinned down to 20-30 μm for optical access. Spines on apical dendrites in mouse primary sensory cortices were imaged using a Bruker Ultima IV two-photon microscope equipped with an Olympus water-immersion objective (40×, NA=0.8) and a Ti:Sapphire laser (Spectra-Physics Mai-Tai, excitation wavelength 920 nm). Images were taken at a zoom of 4.0 (pixel size 0.143×0.143 μm) and Z-step size of 0.7 μm. The mice received an i.p. injection (injection volume=5 mL/kg) of DOI (10 mg/kg) or TBG (50 mg/kg) immediately after they recovered from anesthesia given prior to the first imaging session. The animals were re-imaged 24 h after drug administration. Dendritic spine dynamics were analyzed using ImageJ. Spine formation and elimination were quantified as percentages of spine number on day 0.

[3] = system: larval zebrafish expressing GCaMP5; test: Seizurogenic potential in larval zebrafish expressing GCaMP5; assay type: in vivo; details: 200 μM; PTZ positive control
Method: Transgenic larval zebrafish expressing GCaMP5G were immobilized in agarose, treated with compounds, and imaged over time. The known seizure-inducing compound PTZ was used as a positive control. All compounds were treated at 200 μM (n=2 per condition).

larval zebrafish = test: Larval zebrafish movement activity during a battery of light and acoustic stimuli; details: for behavioral phenotype at highest concentration versus lethal control: 200 μM; for behavioral phenotype with increasing concentration versus vehicle and lethal control (eugenol, 100 μM): 1 h treatment, concentration-response
Source text: Stimuli applied over time are indicated under the heatmaps. Colors indicate bright LED light of respective colors, black traces represent the waveforms of acoustic stimuli, and gray vertical lines indicate physical tapping as secondary acoustic stimuli.
Response is […] proportional to classification accuracy; 0-20% indicates no ability and 100% indicates perfect classification. […] The solid line denotes the median and the shading denotes a 95th percentile confidence interval calculated by bootstrap. N=8 wells/condition (64 animals/condition).

zebrafish = test: Zebrafish developmental toxicity assay; assay type: in vivo; details: 100 μM; 2 and 5 dpf

Chain of 5-HT2B receptors (P41595 whole entry, canonical isoform): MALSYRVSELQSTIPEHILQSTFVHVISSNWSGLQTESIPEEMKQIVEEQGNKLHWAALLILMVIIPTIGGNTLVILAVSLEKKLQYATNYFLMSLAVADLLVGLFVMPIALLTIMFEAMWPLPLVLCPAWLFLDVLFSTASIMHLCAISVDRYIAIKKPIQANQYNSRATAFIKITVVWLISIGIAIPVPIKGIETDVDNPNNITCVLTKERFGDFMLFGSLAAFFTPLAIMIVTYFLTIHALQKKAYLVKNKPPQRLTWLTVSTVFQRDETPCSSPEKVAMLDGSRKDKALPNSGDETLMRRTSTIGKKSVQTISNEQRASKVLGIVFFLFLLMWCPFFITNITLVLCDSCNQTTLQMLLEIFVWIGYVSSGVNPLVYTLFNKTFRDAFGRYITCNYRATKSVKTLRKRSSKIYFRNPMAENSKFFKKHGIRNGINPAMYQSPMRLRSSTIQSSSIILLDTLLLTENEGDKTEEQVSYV

Molecule: CCN(CC)C(=O)[C@@H]1C=C2c3cccc4[nH]c(Br)c(c34)C[C@H]2N(C)C1 [BOL148]
- activation of 5HT2A sensor, agonist mode (5HT2A sensor): do not activate the 5HT2A sensor assay in agonist mode
- competition with 5HT binding at 5HT2A sensor, antagonist mode (5HT2A sensor; antagonist mode): compete with 5HT binding to 5HT2A

Molecule: COc1ccc2[nH]cc(CCN(C)C)c2c1 [Compound 5-MeO-DMT, 5-methoxy-N,N-dimethyltryptamine, reference compound]
- activity mode at 5-HT2B receptors (5-HT2B receptors): agonists of 5-HT2B receptors
- activation of 5HT2A sensor, agonist mode (5HT2A sensor): activate the 5HT2A sensor assay in agonist mode
- activation of 5HT2A sensor, agonist mode, dose response (5HT2A sensor): activate a 5HT2A sensor assay in agonist mode
- hallucinogenic potential (head-twitch response) (C57BL/6J mice): robust HTR

Molecule: CCN(CC)CCc1c[nH]c2cc(F)ccc12 [Compound 6-F-DET]
- activation of 5HT2A sensor, agonist mode (5HT2A sensor): do not activate the 5HT2A sensor assay in agonist mode
- competition with 5HT binding at 5HT2A sensor, antagonist mode (5HT2A sensor; antagonist mode): compete with 5HT binding to 5HT2A

Molecule: COc1ccc2c(CCN(C)C)c[nH]c2c1 [Compound 6-MeO-DMT]
- activation of 5HT2A sensor, agonist mode (5HT2A sensor): do not activate the 5HT2A sensor assay in agonist mode
- activation of 5HT2A sensor, agonist mode, dose response (5HT2A sensor): do not
- competition with 5-HT at 5HT2A sensor, antagonist mode, dose response (5HT2A sensor; antagonist mode, FIG. 17): compete off 5-HT

Molecule: CCC1CC2CCC1N(CCc1c[nH]c3ccc(O)cc13)C2 (stereo not drawn) [Compound 11b]
- psychoplastogenic effect on dendritic growth (Sholl analysis) [1]: weak psychoplastogens or did not promote neuronal growth

Molecule: CN(C)CCc1c[nH]c2ccccc12 [DMT]
- activation of 5HT2A sensor, agonist mode (5HT2A sensor): activate the 5HT2A sensor assay in agonist mode

Molecule: COc1cc(CC(C)N)c(OC)cc1I (stereo not drawn) [DOI, 2,5-dimethoxy-4-iodoamphetamine, reference compound]
- spine elimination [2]: no effect on spine elimination; also recorded: Neither TBG nor DOI affected spine elimination
- spine formation [2]: increased spine formation
- activation of 5HT2A sensor, agonist mode (5HT2A sensor): activate the 5HT2A sensor assay in agonist mode

Molecule: O=C(c1ccc(F)cc1)C1CCN(CCn2c(=O)[nH]c3ccccc3c2=O)CC1 [Ketanserin, ketanserin]
- activation of 5HT2A sensor, agonist mode (5HT2A sensor): do not activate the 5HT2A sensor assay in agonist mode
- competition with 5HT binding at 5HT2A sensor, antagonist mode (5HT2A sensor; antagonist mode): compete with 5HT binding to 5HT2A

Molecule: CCN(CC)C(=O)[C@@H]1C=C2c3cccc4[nH]cc(c34)C[C@H]2N(C)C1 [LSD, lysergic acid diethylamide]
- activation of 5HT2A sensor, agonist mode (5HT2A sensor): activate the 5HT2A sensor assay in agonist mode
- activation of 5HT2A sensor, agonist mode, dose response (5HT2A sensor): activate a 5HT2A sensor assay in agonist mode

Molecule: C1CCc2nnnn2CC1 [PTZ, pentylenetetrazole, reference compound]
- seizure induction (neural activity) [3]: excessive neural activity

Molecule: CNC(C)Cc1ccc2c(c1)OCO2 (stereo not drawn) [R-MDMA]
- activation of 5HT2A sensor, agonist mode (5HT2A sensor): do not activate the 5HT2A sensor assay in agonist mode

Molecule: O=S1OCC2C(CO1)C1(Cl)C(Cl)=C(Cl)C2(Cl)C1(Cl)Cl (stereo not drawn) [endosulfan, reference compound]
- behavioral phenotype at highest concentration versus lethal control (larval zebrafish): phenotypically consistent with the lethal control

Molecule: O=C(CCCN1CCC(O)(c2ccc(Cl)cc2)CC1)c1ccc(F)cc1 [haloperidol, reference compound]
- behavioral phenotype with increasing concentration versus vehicle and lethal control (eugenol, 100 μM) (larval zebrafish): more phenotypically distinct from the vehicle control, while more closely resembling the lethal control

Molecule: CC[C@H]1C[C@H]2C[C@H]3c4[nH]c5ccc(O)cc5c4CCN(C2)[C@@H]13 [noribogaine, reference compound]
- malformations, mortality, non-viable fish (zebrafish): greater survival, but the majority of the animals exhibited yolk sac and/or pericardial edemas
- behavioral phenotype at highest concentration versus lethal control (larval zebrafish): phenotypically consistent with the lethal control
- behavioral phenotype with increasing concentration versus vehicle and lethal control (eugenol, 100 μM) (larval zebrafish): more phenotypically distinct from the vehicle control, while more closely resembling the lethal control

Molecule: O=C1NCCN1CCN1CCC(c2cn(-c3ccc(F)cc3)c3ccc(Cl)cc23)CC1 [sertindole, reference compound]
- behavioral phenotype with increasing concentration versus vehicle and lethal control (eugenol, 100 μM) (larval zebrafish): more phenotypically distinct from the vehicle control, while more closely resembling the lethal control

Molecule: CC(C)(C)c1ccc(C(O)CCCN2CCC(C(O)(c3ccccc3)c3ccccc3)CC2)cc1 (stereo not drawn) [terfenadine, reference compound]
- behavioral phenotype with increasing concentration versus vehicle and lethal control (eugenol, 100 μM) (larval zebrafish): more phenotypically distinct from the vehicle control, while more closely resembling the lethal control

Molecule: ibogaine [reference compound]
- psychoplastogenic effect on dendritic growth (Sholl analysis) [1]: demonstrates psychoplastogenic effects
